According to article PMC5880945, “D-Arg^0-Bradykinin-Arg-Arg, a Latent Vasoactive Bradykinin B2 Receptor Agonist Metabolically Activated by Carboxypeptidases” (Frontiers in Pharmacology, 2018):
Entries after “also recorded” stand apart in the source; their conditions may differ. Square brackets hold non-standard residues; d marks the D form. Ends that are not written are not given here.

What was measured:
[1] = test system: human ACE-mCherry fusion protein; test: Competition of a fluorogenic ACE substrate by synthetic kinins (recombinant ACE-mCherry); format: biochemical; conditions: enalaprilat 1 μM; 15 min, 37°C; fluorescence
Description: The source of enzyme was whole HEK 293a cells grown in 24-well plates and transfected as described with a vector coding for the human ACE-mCherry fusion protein, an active enzyme ([Charest-Morin and Marceau, 2016]). The culture medium was removed from cell wells, which were rinsed twice with PBS. The fluorogenic substrate (final concentration 20 μM), and, optionally, a competitor (BK, r-BK, or r-BK-RR in variable concentrations, or the ACE inhibitor enalaprilat 1 μM) were added in 250 μl PBS in each well; the plates were then incubated for 15 min at 37°C. At this point, the well supernatants were transferred in Eppendorf tubes, centrifuged 30 s at 12500 rpm to remove debris and 100 μl of this fluid transferred in wells of 96-well plate (black background) to read the fluorescence (excitation 320 nm, emission 420 nm) using a TECAN Infinite® 200 PRO microplate reader. Results were expressed as the percent of the fluorescence in wells containing ACE-mCherry and the substrate without competitors. Controls included mock-transfected cells and enalaprilat-treated cells.

[2] = test system: anesthetized rats; test: In vivo hemodynamics in anesthetized rats pretreated with icatibant or peptidase inhibitors; design: species or system male Sprague-Dawley rats; conditions: for Mean arterial blood pressure, basal after pre-treatment / Heart rate, basal after pre-treatment: 15 min after i.v. pretreatment, mean ± SEM, n = 10 icatibant, 9 enalaprilat, 8 Plummer’s, 10 combination; for Mean arterial blood pressure, basal after pre-treatment: untreated control 93.2 ± 3.3 (n = 13), ANOVA N.S.; for Heart rate, basal after pre-treatment: untreated control 352 ± 10 (n = 13), ANOVA P < 0.001, * icatibant, ** others
Description: All surgical and experimental procedures were reviewed and approved by the Animal Care and Handling Committee of Laval University, in accordance with the Canadian Council on Animal Care. Experiments were performed on male Sprague-Dawley rats (300–375 g) purchased from Charles River Laboratories (St-Constant, QC, Canada). The rats were housed in a light-controlled (12:12-h light-dark cycle (lights on at 0600)) and temperature-regulated room (22 ± 1°C). Animals had free access to normal chow diet and tap water. They were allowed to acclimate to their environmental conditions for 1 week prior to being studied. At the end of the acclimation period, the rats were anesthetised with sodium pentobarbital (50 mg kg^-1, i.p., supplemented as required) and had one catheter implanted into the right jugular vein [for intravenous (i.v.) injection] and one into the left femoral artery [for direct and continuous measurement of blood pressure and heart rate as previously described ([Jean et al., 2016])]. Experiments started at least 20 min following the end of surgery in anesthetised rats.
The mechanism subserving the cardiovascular responses to random i.v. injections of r-BK and r-BK-RR at the dose of 1.6 μg/kg, was evaluated in rats pretreated with specific antagonists. In these experiments, the rats were separated in four groups depending on the antagonist tested, and the cardiovascular responses to the peptides agonists were compared with those elicited in the untreated control group of rats. In the first group of treated rats, the long acting and selective B2R antagonist, icatibant (Hoe 140) (D-Arg-[Hyp^3, Thi^5, D-Tic^7, Oic^8]) bradykinin ([Hock et al., 1991]; [Wirth et al., 1991]; [Rhaleb et al., 1992]; [Marceau et al., 1994]) was intravenously administered as bolus (75 μg/kg, 0.1 ml) following a 10 min period of baseline measurements of heart rate and blood pressure. Fifteen minutes later, recording changes in blood pressure and heart rate elicited by i.v. injection of peptide vehicle (saline-BSA 0.1%) followed by random injections of r-BK and r-BK-RR, were made as described above. The next peptide was administered once all recorded cardiovascular parameters had returned to baseline after the previous injection. Further experiments were made in a second group of rats pretreated with the ACE inhibitor, enalaprilat. In these experiments, enalaprilat was intravenously administered as bolus ([…], 0.1 ml) 15 min before the i.v. injections of peptide vehicle and both customized peptides, as above. Further experiments were also carried out in rats pretreated with the Plummer’s inhibitor (mercaptomethyl-3-guanidinoethylthiopropanoic acid) a high affinity inhibitor of arginine carboxypeptidases that is an arginine analog ([Plummer and Ryan, 1981]). The inhibitor was intravenously administered as bolus (0.75 mg/kg, 0.1 ml) followed 15 min later by the i.v. injections of saline-BSA 0.1%, and then r-BK and -r-BK-RR (1.6 μg/kg) in random order. A fourth group of rats was pretreated with a combined i.v. injection of enalaprilat (0.1 mg/kg) and the Plummer’s inhibitor (0.75 mg/kg) 15 min before the randomized i.v. injections of both customized peptides, as above. The doses of different inhibitors were based on preliminary experiments and from previous studies performed by us and others ([Ishida et al., 1989]; [Wirth et al., 1991]; [Muto et al., 2003]; [Jean et al., 2016]). At the end of the experiments the rats were euthanized with an overdose of sodium pentobarbital (240 mg/kg, i.v.).
Results are presented as means ± SEM. Radioligand binding data were fitted by non-linear regression to a one-site competition equation using a least-square method (Prism 5.0, GraphPad Software Inc., San Diego, CA, United States) and IC50 values calculated from this procedure. […]

[3] = test system: ACE (two separate catalytic sites); conditions: ref Araujo et al., 2000; cited from earlier work
Excerpt: The source of enzyme was whole HEK 293a cells grown in 24-well plates and transfected as described with a vector coding for the human ACE-mCherry fusion protein, an active enzyme ([Charest-Morin an ...

[4] = test system: GFP-tagged rabbit B2R (B2R-GFP); test: B2R-GFP endocytosis and recycling, epifluorescence microscopy, HEK 293 cells; format: cell-based; conditions: 30 min vs 3 h of stimulation
[5] = test system: anesthetized rats; design: method as in 2 sources, one per row (each row's own in cited_ref): ref Jean et al., 2016; Charest-Morin et al., 2017 ||| ref Jean et al., 2016; conditions: intravenous boluses; ref Jean et al., 2016; Charest-Morin et al., 2017; cited from earlier work
[6] = target: T1, endogenous B2R of the human isolated umbilical vein (human (endogenous in umbilical vein), UniProt P30411 1-391); test: cell-based or functional assay
T1 sequence (looked up): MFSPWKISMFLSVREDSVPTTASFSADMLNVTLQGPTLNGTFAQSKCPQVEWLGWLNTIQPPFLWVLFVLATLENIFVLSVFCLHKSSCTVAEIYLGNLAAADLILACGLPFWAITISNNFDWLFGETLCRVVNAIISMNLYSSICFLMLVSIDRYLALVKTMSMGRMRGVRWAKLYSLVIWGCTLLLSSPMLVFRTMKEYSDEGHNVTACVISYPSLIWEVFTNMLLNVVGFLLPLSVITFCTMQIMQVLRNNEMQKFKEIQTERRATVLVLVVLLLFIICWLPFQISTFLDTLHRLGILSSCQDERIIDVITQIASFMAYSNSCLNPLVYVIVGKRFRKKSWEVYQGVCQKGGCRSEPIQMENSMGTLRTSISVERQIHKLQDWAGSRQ

[7] = target: T2, myc-tagged rat B2R construction (rat, UniProt P25023 1-396); test: radioligand binding; competition of the binding of 3 nM [^3H]BK to adherent intact HEK 293 cells stably expressing myc-tagged rat B2R by unlabeled peptides; 0°C; peptidase inhibitors including captopril and PMSF; one-site competition fit; conditions: one partner purified
T2 construct: bradykinin B2 receptor, rat; also called rat myc-B2R; rat recombinant myc-B2R; source: HEK 293 cells stably expressing the construction, adherent intact cells
T2 sequence (looked up): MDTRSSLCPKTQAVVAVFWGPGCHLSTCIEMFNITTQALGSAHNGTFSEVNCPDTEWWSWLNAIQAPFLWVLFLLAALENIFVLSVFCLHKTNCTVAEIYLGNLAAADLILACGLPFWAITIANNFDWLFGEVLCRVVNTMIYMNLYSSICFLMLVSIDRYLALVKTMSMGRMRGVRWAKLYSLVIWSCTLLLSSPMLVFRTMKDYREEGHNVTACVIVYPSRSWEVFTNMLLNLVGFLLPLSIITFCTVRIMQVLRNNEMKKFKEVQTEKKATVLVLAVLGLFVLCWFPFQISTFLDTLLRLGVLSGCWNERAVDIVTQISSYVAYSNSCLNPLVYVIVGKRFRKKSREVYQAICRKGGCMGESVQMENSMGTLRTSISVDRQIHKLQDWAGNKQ

Molecule: C[C@H](N[C@@H](CCc1ccccc1)C(=O)O)C(=O)N1CCC[C@H]1C(=O)O [Enalaprilat, enalaprilat, reference compound]
- hydrolysis of ACE substrate by ACE-expressing cells treated with inhibitor, in words [1]: did not catalyze the reaction
- Mean arterial blood pressure, basal after pre-treatment [2]: 89.8 ± 4.1
- Heart rate, basal after pre-treatment [2]: 412 ± 11^∗∗

Molecule: N=C(N)NCCSCC(CS)C(=O)O (stereo not shown) [Plummer’s inhibitor, mercaptomethyl-3-guanidinoethylthiopropanoic acid, reference compound]
- Mean arterial blood pressure, basal after pre-treatment [2]: 90.3 ± 3.6
- Heart rate, basal after pre-treatment [2]: 407 ± 10^∗∗

Molecule: Abz-Phe-Arg-Lys(Dnp)-Pro-OH [internally quenched fluorogenic ACE substrate]
- affinity for the two catalytic sites of ACE, in words [3]: approximately equal low micromolar affinity

Molecule: D-Arg-[Hyp3,Thi5,D-Tic7,Oic8]bradykinin [Icatibant, reference compound]
- Mean arterial blood pressure, basal after pre-treatment [2]: 93.7 ± 3.3
- Heart rate, basal after pre-treatment [2]: 396 ± 10^∗
- inhibition of hypotensive effects of r-BK and r-BK-RR, in words ([2]; icatibant i.v. pretreatment, r-BK or r-BK-RR 1.6 μg/kg i.v.): their effects were inhibited by icatibant

Molecule: D-Arg-[Hyp^3, Igl^5, Oic^7, Igl^8]-BK [B-9972, reference compound]
- persistence of B2R-GFP endocytosis, in words [4]: persistent morphologic response; also recorded: prolonged endocytosis of B2R-GFP
- duration of action vs BK in vivo, in words [5]: not remarkably more longer acting than BK in vivo

B1: D-Arg^0-BK-Arg-Arg (peptide)
peptide: [dR]RPPGFSPFRRR
notes: D-Arg^0, N-terminal extension (a D-residue); bradykinin, whole nonapeptide; Arg-Arg, C-terminal extension; also called r-BK-RR; D-Arg^0-Bradykinin-Arg-Arg; source: synthetic peptide (CanPeptide, Inc., solid-phase, ≥98.3% pure)
- contractile EC50, human isolated umbilical vein, with enalaprilat 1 μM (ACE blockade) [6]: 1510 nM
- contractile EC50, human isolated umbilical vein, with enalaprilat 1 μM + Plummer’s inhibitor 1 μM (ACE blockade) [6]: 1760 nM
- IC50 [7]: 1050 nM

B2: D-Arg^0-BK (peptide)
peptide: [dR]RPPGFSPFR
notes: D-Arg^0, N-terminal extension (a D-residue); bradykinin, whole nonapeptide; also called r-BK; D-Arg^0-bradykinin; source: synthetic peptide (CanPeptide, Inc., solid-phase, ≥98.3% pure)
- contractile EC50, human isolated umbilical vein, control [6]: 62.4 nM
- contractile EC50, human isolated umbilical vein, with Plummer’s inhibitor 1 μM [6]: 68.4 nM
- contractile EC50, human isolated umbilical vein, with enalaprilat 1 μM [6]: 61.6 nM
- contractile EC50, human isolated umbilical vein, with enalaprilat 1 μM + Plummer’s inhibitor 1 μM [6]: 45.1 nM
- IC50 [7]: 13.3 nM
